From ChEMBL document CHEMBL5465560, “Selectivity Literature for EUbOPEN Chemogenomic Library” (2024)

Columns and labels:
[1] = molecular target: T1, Ankyrin repeat and protein kinase domain-containing protein 1 (Homo sapiens) (UniProt Q8NFD2); test: Selectivity interaction (KinomeScan (DiscoverX)) EUB0000666a ANKK1; conditions: at 10 µM
T1 sequence (whole entry): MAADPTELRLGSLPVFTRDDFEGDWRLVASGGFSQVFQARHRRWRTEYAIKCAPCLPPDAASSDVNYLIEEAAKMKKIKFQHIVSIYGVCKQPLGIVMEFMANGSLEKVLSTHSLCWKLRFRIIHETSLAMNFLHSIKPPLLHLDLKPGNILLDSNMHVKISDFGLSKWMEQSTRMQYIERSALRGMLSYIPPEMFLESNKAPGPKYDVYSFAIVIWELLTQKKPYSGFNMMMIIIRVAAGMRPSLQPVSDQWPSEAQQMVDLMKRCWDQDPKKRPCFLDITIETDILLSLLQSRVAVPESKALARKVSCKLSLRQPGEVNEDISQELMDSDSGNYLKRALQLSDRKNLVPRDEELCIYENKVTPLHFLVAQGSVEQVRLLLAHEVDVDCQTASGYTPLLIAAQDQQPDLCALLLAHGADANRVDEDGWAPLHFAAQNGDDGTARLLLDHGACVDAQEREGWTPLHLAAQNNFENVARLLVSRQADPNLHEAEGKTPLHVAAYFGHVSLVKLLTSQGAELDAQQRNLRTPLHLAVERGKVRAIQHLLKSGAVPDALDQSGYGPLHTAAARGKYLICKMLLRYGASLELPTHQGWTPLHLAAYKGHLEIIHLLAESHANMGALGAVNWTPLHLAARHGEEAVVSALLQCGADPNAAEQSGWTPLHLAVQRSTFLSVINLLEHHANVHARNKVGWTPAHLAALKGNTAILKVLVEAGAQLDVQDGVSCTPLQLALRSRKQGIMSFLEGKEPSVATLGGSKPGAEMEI

[2] = molecular target: Ribosomal protein S6 kinase alpha-2 (Homo sapiens) (UniProt Q15349); test: Selectivity interaction (KinomeScan (DiscoverX)) EUB0000666a RPS6KA2; conditions: at 10 µM
Chain of Ribosomal protein S6 kinase alpha-2 (Homo sapiens) (Q15349 whole entry): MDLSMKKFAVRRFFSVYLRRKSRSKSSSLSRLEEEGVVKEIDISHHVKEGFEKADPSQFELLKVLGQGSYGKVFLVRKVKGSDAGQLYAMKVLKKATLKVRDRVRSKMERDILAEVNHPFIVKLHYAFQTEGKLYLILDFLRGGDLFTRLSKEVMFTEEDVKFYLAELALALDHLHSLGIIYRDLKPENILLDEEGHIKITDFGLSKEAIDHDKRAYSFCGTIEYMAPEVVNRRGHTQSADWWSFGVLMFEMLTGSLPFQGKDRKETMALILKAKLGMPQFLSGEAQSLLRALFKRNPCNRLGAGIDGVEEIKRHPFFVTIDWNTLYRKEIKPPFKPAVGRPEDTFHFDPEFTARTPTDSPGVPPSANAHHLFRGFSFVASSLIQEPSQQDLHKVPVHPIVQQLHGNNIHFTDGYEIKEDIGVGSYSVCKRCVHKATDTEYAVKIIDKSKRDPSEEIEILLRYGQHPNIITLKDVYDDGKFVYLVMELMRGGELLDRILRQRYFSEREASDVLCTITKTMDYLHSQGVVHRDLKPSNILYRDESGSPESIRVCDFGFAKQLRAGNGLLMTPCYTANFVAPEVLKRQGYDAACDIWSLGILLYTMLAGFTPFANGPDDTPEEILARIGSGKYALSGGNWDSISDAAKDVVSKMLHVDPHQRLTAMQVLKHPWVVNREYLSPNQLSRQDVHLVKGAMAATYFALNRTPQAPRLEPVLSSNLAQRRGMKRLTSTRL

[3] = molecular target: T2, Serine/threonine-protein kinase Nek10 (Homo sapiens) (UniProt Q6ZWH5); test: Selectivity interaction (KinomeScan (DiscoverX)) EUB0001079a NEK10; conditions: at 1 µM
T2 sequence (whole entry): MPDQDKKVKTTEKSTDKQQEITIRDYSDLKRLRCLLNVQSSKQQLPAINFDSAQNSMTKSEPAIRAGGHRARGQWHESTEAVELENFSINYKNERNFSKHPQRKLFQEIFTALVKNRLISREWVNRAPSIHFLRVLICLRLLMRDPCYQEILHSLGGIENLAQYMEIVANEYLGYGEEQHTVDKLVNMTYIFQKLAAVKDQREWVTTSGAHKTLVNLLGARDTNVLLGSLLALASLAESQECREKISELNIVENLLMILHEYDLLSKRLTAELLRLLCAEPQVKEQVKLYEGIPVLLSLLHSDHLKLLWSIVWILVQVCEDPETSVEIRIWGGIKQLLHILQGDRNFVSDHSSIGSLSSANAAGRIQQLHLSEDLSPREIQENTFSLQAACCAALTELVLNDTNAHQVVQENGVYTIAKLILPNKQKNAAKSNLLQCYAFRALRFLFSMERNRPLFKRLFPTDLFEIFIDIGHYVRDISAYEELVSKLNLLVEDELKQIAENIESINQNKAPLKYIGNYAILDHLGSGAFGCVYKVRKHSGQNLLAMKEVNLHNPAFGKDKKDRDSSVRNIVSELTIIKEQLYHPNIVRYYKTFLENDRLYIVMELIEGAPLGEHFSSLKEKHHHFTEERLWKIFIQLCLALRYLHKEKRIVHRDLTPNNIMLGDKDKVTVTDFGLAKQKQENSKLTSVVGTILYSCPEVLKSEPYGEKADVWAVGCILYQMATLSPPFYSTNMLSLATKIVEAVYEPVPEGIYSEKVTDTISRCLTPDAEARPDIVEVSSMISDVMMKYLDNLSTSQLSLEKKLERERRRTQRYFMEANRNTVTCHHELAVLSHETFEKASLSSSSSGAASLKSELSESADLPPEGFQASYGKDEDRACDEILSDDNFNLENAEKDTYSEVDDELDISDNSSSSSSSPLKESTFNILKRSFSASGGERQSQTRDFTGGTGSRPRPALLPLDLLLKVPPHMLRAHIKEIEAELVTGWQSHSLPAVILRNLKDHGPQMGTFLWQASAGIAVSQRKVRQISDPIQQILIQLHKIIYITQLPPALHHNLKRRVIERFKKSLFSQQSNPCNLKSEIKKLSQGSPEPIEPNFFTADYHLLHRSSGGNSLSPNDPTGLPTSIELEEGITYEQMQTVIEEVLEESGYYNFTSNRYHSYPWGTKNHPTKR

[4] = molecular target: Type-1 angiotensin II receptor (Homo sapiens, UniProt P30556); test: Selectivity interaction (Angiotensin II AT1 receptor binding assay, human recombinant ) EUB0000877a AGTR1
Chain of Type-1 angiotensin II receptor (P30556 whole entry): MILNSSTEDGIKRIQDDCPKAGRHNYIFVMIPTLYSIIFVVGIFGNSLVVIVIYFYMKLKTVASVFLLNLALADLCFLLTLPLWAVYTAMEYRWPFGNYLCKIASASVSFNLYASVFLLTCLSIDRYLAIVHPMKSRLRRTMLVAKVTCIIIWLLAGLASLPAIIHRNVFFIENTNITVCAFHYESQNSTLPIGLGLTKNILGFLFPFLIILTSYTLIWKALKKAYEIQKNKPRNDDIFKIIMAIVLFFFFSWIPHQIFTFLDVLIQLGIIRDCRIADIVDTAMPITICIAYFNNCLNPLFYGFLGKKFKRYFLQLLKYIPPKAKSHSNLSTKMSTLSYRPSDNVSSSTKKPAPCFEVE

[5] = molecular target: Wee1-like protein kinase 2 (Homo sapiens) (UniProt P0C1S8); test: Selectivity interaction (KinomeScan (DiscoverX)) EUB0000655a WEE2; conditions: at 10 µM
Chain of Wee1-like protein kinase 2 (Homo sapiens) (P0C1S8 whole entry, looked up): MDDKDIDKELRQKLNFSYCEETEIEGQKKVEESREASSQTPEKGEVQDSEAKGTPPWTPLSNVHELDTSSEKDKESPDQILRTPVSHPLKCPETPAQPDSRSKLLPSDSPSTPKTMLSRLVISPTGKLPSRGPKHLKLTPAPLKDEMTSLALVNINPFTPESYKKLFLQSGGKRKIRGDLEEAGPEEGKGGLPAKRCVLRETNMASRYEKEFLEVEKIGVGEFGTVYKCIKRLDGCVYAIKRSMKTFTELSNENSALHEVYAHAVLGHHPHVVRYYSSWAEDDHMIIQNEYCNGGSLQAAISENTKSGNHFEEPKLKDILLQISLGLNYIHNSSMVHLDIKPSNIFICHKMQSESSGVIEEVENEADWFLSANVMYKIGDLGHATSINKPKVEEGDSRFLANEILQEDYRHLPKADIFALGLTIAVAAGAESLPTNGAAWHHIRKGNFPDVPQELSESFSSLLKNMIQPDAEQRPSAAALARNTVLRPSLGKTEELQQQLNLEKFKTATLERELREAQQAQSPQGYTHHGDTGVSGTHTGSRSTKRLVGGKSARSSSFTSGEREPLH

[6] = molecular target: T3, Activin receptor type-1 (Homo sapiens) (UniProt Q04771); test: Selectivity interaction (LanthaScreen Eu Kinase Binding Assay) EUB0001632a ACVR1; conditions: at 10 µM
T3 sequence (whole entry): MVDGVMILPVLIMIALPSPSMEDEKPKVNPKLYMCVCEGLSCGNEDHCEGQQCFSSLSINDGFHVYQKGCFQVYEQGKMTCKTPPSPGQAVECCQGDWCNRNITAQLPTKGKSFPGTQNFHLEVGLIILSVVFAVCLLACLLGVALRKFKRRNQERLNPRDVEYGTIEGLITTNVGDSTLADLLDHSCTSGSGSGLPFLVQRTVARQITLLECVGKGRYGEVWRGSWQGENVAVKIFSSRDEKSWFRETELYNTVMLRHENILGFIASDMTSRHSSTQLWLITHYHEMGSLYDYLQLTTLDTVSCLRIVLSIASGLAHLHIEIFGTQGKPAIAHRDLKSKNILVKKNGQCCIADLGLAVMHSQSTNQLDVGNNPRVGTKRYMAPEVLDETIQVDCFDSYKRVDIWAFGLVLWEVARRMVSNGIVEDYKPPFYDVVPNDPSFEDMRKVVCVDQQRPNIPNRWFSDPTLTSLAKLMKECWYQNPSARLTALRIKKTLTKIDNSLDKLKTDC

[7] = molecular target: Mitogen-activated protein kinase 11 (Homo sapiens) (UniProt Q15759); test: Selectivity interaction (Kinase panel (Z-LYTE Assay)) EUB0001632a MAPK11; conditions: at 10 µM
Chain of Mitogen-activated protein kinase 11 (Homo sapiens) (Q15759 whole entry): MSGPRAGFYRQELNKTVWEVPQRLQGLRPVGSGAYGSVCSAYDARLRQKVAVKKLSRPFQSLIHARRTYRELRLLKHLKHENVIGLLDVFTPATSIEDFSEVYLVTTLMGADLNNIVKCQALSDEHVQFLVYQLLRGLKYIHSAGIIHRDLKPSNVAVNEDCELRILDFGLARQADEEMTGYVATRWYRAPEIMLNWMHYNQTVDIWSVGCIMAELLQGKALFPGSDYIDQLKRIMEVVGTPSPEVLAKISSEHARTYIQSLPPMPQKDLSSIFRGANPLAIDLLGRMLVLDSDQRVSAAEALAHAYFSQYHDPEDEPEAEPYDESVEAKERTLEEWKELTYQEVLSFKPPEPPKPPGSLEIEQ

[8] = molecular target: G protein-coupled receptor kinase 5 (Homo sapiens, UniProt P34947); test: Selectivity interaction (ProQinase) EUB0000171b GRK5
Chain of G protein-coupled receptor kinase 5 (P34947 whole entry, looked up): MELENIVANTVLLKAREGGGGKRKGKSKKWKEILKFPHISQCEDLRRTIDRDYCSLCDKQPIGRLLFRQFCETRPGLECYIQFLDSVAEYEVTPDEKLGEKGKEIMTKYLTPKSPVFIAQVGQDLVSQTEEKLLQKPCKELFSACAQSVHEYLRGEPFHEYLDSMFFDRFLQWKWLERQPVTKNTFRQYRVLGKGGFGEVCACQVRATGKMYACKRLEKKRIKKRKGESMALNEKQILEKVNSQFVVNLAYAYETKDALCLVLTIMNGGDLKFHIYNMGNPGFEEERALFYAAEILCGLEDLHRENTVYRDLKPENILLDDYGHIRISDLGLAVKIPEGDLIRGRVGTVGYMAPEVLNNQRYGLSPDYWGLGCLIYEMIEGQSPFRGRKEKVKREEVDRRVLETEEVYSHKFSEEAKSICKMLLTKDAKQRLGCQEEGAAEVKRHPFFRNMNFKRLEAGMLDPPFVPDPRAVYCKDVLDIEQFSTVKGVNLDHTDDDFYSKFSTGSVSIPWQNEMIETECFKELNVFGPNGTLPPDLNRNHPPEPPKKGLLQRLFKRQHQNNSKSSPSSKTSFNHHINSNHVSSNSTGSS

Compound O=C(NOC[C@H](O)CO)c1ccc(F)c(F)c1Nc1ccc(I)cc1F has a % of control [1] of 64% and a % of control [2] of 100%.

Nc1cnc(N2CCc3cc(S(=O)(=O)Nc4c(F)cc(Cl)cc4F)cc(N4CCCC4=O)c32)nc1 [TP-020n] gave a % of control [3] of 100%.

CCC(=O)N1CC[C@H](Nc2ncnc3c2CN(c2cnc(OC)c(C(F)(F)F)c2)CC3)C1 [LENIOLISIB] gave an IC50 [4] of over 30 µM.

Work on CN(C)CCOc1ccc(-c2nc(-c3ccncc3)c(-c3ccc4c(c3)CC/C4=N\O)[nH]2)cc1 yielded a % of control [5] of 100%.

In the case of Cn1cc(-n2cnc3c(NCc4nc5cc(Cl)c(Cl)cc5[nH]4)nc(N4CCOCC4)nc32)cn1, the % of inhibition [6] is reported as -2.09% and the % of control [7] is reported as 1.54%.

Compound C=CC(=O)Nc1cccc(C(=O)Nc2ccc(Nc3cc(-c4[nH]c(SC)nc4C)ccn3)cc2)c1 has a % of control ([8]; at 1 µM) of 97% and a % of control ([8]; at 5 µM) of 94%.
